Legend:
Format in all cases: cell-based
[1] = biological target: T1, STAT1 (Homo sapiens, UniProt P42224); assay: STAT1 reporter gene (luciferase) assay in U2OS stable cell line stimulated with IFN-γ; conditions: U2OS stable cell line (pGL4-STAT1-TA-luc), IFN-γ 50 ng/mL, 8 hours; read-out: IC50 (μM) pSTAT1
T1 construct: pGL4-STAT1-TA-luc), which contains a stably operating STAT1 promoter; endogenous in cells
T1 sequence (P42224 1-750): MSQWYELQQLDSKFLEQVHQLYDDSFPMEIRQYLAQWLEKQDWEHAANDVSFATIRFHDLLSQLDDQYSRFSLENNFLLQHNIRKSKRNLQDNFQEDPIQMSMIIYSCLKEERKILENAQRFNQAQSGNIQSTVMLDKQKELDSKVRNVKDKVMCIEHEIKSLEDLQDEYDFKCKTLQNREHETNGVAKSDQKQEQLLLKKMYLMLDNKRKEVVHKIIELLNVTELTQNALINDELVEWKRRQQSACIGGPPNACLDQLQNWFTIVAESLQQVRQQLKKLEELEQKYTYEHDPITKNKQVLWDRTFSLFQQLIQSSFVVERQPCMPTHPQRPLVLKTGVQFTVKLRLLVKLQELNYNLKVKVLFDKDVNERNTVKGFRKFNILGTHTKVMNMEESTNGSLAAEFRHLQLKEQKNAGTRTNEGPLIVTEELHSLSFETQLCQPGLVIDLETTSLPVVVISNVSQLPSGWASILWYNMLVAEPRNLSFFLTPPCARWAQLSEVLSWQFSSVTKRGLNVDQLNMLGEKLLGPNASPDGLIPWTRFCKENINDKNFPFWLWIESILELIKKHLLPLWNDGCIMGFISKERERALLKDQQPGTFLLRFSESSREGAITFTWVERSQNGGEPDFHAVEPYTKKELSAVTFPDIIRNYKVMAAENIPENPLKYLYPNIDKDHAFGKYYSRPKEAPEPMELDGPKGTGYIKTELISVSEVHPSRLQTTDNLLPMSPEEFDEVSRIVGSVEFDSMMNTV
Procedure: 1-2) Experiment on the Inhibition of STAT1 Activity
A human osteosarcoma cell line (U2OS stable cell line; pGL4-STAT1-TA-luc), which contains a stably operating STAT1 promoter, was cultured in McCoy 5′A medium (Cat No. 16600, Life Technologies) containing 10% FBS (Cat No. SH30396, Thermo Scientific) and 1000 μg/mL G418 solution (Cat No. 04 727 894 001, Roche). The reporter gene assay using U2OS stable cell line was performed in McCoy 5′A medium containing 10% FBS without G-418 solution. U2OS stable cells were plated in two (2) white 96-well plates with 25,000 cells/50 μL in each well. […] The plates were observed under microscope and drug precipitation and particular findings were investigated and recorded.
The luciferase assay and the cell viability assay were performed respectively with one of two plates. […] After shaking the plate for 30 minutes, luciferase activities of each well were measured in a PHERAstar™ microplate reader (BMG LABTECH) using a luciferase assay system (Cat No. E1501, Promega). For the cell viability assay, the 96-well plate was placed at room temperature for 30 minutes, added with 20 μL/well of CellTiter-Glo solution (Cat No. G7573, Promega), and shaken for 10 minutes in order to measure cytotoxicity caused by the compounds listed in Examples with a PHERAstar™ microplate reader (BMG LABTECH). […]

[2] = system: MDA-MB-468; assay: Cell growth inhibition assay (CellTiter-Glo), breast cancer cell line MDA-MB-468; conditions: MDA-MB-468 cells, 96 hours
How it was run: (§1)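 Cells seeded at 5,000/well (NCI-N87) or 10,000/well (MDA-MB-468) and exposed to serially diluted compounds for 96 h at 37 °C, NCI-N87 under 5% CO2 and MDA-MB-468 in air. Viability read by CellTiter-Glo luminescence; cell-free wells served as negative control and 0.1% DMSO wells as positive control.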

[3] = biological target: T2, STAT3 (Homo sapiens, UniProt P40763); assay: STAT3 reporter gene (luciferase) assay in LNCaP stable cell line stimulated with IL-6; conditions: LNCaP stable cell line (pSTAT3-TA-luc), IL-6 10 ng/mL, 24 hours
T2 construct: plasmid pSTAT3-TA-luc), which contains a stably operating STAT3 promoter; endogenous in cells
How it was run: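 LNCaP cells stably carrying pSTAT3-TA-luc, in RPMI1640 with 3% DCC-FBS, cultured 24 hours, then treated with compound at various concentrations plus IL-6 (final 10 ng/mL) for 24 hours at 37° C. Luciferase measured in lysates; parallel plate read for viability by CellTiter-Glo.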

[4] = system: NCI-N87; assay: Cell growth inhibition assay (CellTiter-Glo), stomach cancer cell line NCI-N87; conditions: NCI-N87 cells, 96 hours
How it was run: as §1

T2 sequence (P40763 whole entry): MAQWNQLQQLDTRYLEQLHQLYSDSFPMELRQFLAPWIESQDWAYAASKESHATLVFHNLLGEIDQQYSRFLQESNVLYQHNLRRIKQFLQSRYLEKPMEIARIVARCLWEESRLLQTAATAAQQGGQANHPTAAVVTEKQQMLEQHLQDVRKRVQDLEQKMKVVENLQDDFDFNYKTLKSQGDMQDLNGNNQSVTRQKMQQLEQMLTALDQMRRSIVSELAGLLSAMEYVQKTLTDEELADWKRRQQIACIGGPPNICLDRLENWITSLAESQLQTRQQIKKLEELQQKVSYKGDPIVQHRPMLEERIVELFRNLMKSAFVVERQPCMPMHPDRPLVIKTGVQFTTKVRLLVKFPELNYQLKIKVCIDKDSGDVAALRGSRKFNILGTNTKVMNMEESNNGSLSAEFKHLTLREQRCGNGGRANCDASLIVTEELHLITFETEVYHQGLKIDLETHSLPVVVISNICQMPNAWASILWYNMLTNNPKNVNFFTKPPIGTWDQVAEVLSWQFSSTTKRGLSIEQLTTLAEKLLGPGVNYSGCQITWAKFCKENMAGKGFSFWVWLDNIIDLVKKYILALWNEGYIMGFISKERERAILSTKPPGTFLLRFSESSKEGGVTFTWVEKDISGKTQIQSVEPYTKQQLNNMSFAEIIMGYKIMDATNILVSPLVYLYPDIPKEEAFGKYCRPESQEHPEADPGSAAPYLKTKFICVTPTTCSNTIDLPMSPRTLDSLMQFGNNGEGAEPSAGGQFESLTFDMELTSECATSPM

Substance	IC50 [1]	IC50 [2]	IC50 [3]	IC50 [4]
N-(2-chloro-6-(5-chloro-2-methylphenoxy)pyridin-4-yl)-4-(methylsulfonyl)-3,4-dihydro-2H-thieno[3,2-g]chromene-7-carboxamide [Example 37]	> 50 µM	0.0047 µM	0.0062 µM	0.0095 µM
tert-butyl 7-((2-chloro-6-(4-chlorophenoxy)pyridin-4-yl)carbamoyl)-1-(methylsulfonyl)-2,3-dihydrothieno[2,3-g]quinoxaline-4(1H)-carboxylate [Example 5]	> 50 µM	–	0.76 µM	0.72 µM

Reference: US10633394B2, “Heterocyclic derivatives and use thereof” (C & C RESEARCH LABORATORIES, priority 2014, dated 2020)
